The values below come from the NIST ThermoML archive (doi:10.1016/j.jct.2017.03.027).

Numbers after ± are expanded uncertainties.

The conditions of data set [1]: 100 kPa, Liquid, Vibrating tube method.
Data set [2] is described as follows: molar heat capacity at constant pressure. The note with it: 100 kPa, Liquid, Large sample (1 g) DSC.
Data set [3] is described as follows: xn = mol fraction of the nth substance listed. Conditions: 100 kPa, Liquid, Vibrating tube method, x2 = 0.
Data set [4] can be described thus: molar heat capacity at constant pressure; xn = mol fraction of the nth substance listed. The note with it: 100 kPa, Liquid, Large sample (1 g) DSC, x2 = 0.

By mass density is commonly meant the mass of a sample divided by its volume.

For `Cc1ccc(C(C)C)cc1` [1-(1-methylethyl)-4-methylbenzene], the mass density in data set [1] (298.15 K) is reported as 852.93 ± 0.71 kg/m3; in data set [1] (308.15 K) it was 844.89 ± 0.71 kg/m3; in data set [1] (318.15 K) it was 836.81 ± 0.71 kg/m3; in data set [1] (328.15 K) it was 828.69 ± 0.71 kg/m3. Further, the “molar heat capacity at constant pressure” value was found to be 240.3 ± 3.9 J/K/mol in data set [2] (298.6 K), 244.7 ± 4 J/K/mol in data set [2] (308.5 K), 249.4 ± 4.1 J/K/mol in data set [2] (318.5 K) and 254.4 ± 4.1 J/K/mol in data set [2] (328.4 K).
In the case of `CCO` [ethanol], the mass density was 785.11 ± 0.71 kg/m3 in data set [1] (298.15 K), 776.44 ± 0.71 kg/m3 in data set [1] (308.15 K), 767.62 ± 0.71 kg/m3 in data set [1] (318.15 K) and 758.6 ± 0.71 kg/m3 in data set [1] (328.15 K). For the same compound, the “molar heat capacity at constant pressure” value in data set [2] (298.6 K) is listed as 112 ± 1.8 J/K/mol; in data set [2] (308.5 K), 116.4 ± 1.9 J/K/mol; in data set [2] (318.5 K) it was 121 ± 2 J/K/mol; in data set [2] (328.4 K), 125.6 ± 2 J/K/mol.
On to `CCO` [ethanol] + Cc1ccc(C(C)C)cc1, for which the mass density in data set [3] (298.15 K) is reported as 785.11 ± 0.71 kg/m3; in data set [3] (308.15 K), 776.44 ± 0.71 kg/m3; in data set [3] (318.15 K), 767.62 ± 0.71 kg/m3; in data set [3] (328.15 K) it was 758.6 ± 0.71 kg/m3. For the same compound, the “molar heat capacity at constant pressure” value in data set [4] (298.6 K) worked out at 112 ± 1.8 J/K/mol; in data set [4] (308.5 K), 116.4 ± 1.9 J/K/mol; in data set [4] (318.5 K), 121 ± 2 J/K/mol; in data set [4] (328.4 K) it was 125.6 ± 2 J/K/mol.
